pIC50: −log10 of the molar value.
What was measured:
[1] = test system: EV miR-221 from NSC34 cells; experiment: ddPCR of miR-221-3p in NSC34-derived EV-RNA; format: cell-based, mouse; details: NSC34-derived EVs, 6 h treatment
Method: EVs were isolated from HEK293T, NSC34, and smNPC-derived motor neurons using nickel-based isolation (NBI) or differential ultracentrifugation (UC). NBI protocol was performed as already described. Briefly, after a first centrifugation step at 2800 × g for 10 min, nickel beads were incubated for 30 min with serum-free media collected from cells in a ratio of 25 μl of beads per ml of medium. After a 2 min centrifugation at 600 g, particles were eluted from the beads by adding 1× elution buffer made of Solution A [16 mM ethylenediaminetetraacetic acid (EDTA), UltraPure, pH 8.0, Thermo Fisher] and Solution B (10 mM NaCl, 225 μM citric acid, Sigma–Aldrich) diluted five times in phosphate-buffered saline (PBS). After 15 min incubation at 28°C in a thermoshaker, the EVs were retrieved by 1-min centrifugation at 1800 × g and subjected to the following characterization. NBI was used to recover polydisperse EVs and include the RNA contribution from these for reverse proteomics experiments. The EV-RNA for reverse proteomics was pooled from three consecutive EV isolation procedures performed on a total of 30 T75 flasks (10 flasks each) of NSC34 cells grown until 80% confluence under standard conditions before washing with PBS and incubating with serum-free medium with glutamine and antibiotics. Differential UC was applied as an alternative EV isolation protocol to confirm the detection of hnRNPA2B1 protein. UC was performed by a SW 32 Ti swinging bucket rotor in an Optima XPN-100 ultracentrifuge (Beckman Coulter, Brea, CA, USA). The cell-conditioned serum-free media, after the first centrifugation step at 2800 × g for 10 min, was put in open-top Ultra-Clear centrifuge tubes (Beckman Coulter-344058) and subjected to 100 000 × g (100 K) UC for 70 min at 4°C under vacuum, with or without an additional step at 10 000 × g (10 K) to first sediment larger particles. Then the supernatant was removed, and the pellet was resuspended in 0.22 μm filtered PBS. Differential UC alone, consisting of 2800 × g for 10 min and 100 000 × g for 70 min, was applied for experiments reported in Fig. 5. […]
RNA from cells was extracted using TRI Reagent® (T9424, Sigma) following the manufacturer’s instructions. Thermo Fisher Nanodrop 2000 Spectrophotometer was used to assess the purity and quantity of extracted RNA. […] The elution was in 10–20 μl of RNase-free water and the RNA profiling and quantification was assessed by Agilent 2100 Bioanalyzer and RNA 6000 Pico Kit (5067-1513). Cell- and EV-RNAs were also analysed with DNF-472 HS RNA (15 nt) Kit (Agilent Technologies, Santa Clara, CA), according to the manufacturer. […] Results were analysed with Agilent ProSize data analysis software, that allows the analysis of RNA size, concentration and quality. […]

[2] = test system: NSC34 cells; experiment: Nanodrop quantification of total intracellular RNA after treatment; format: cell-based, mouse; details: 6 h treatment
Method: RNA from cells was extracted using TRI Reagent® ([…], Sigma) following the manufacturer's instructions. Thermo Fisher Nanodrop 2000 Spectrophotometer was used to assess the purity and quantity of extracted RNA. RNA from EVs was extracted using Single Cell RNA Isolation Kit (51800, Norgen) following the manufacturer's protocol. The elution was in 10-20 μl of RNase-free water and the RNA profiling and quantification was assessed by Agilent 2100 Bioanalyzer and RNA 6000 Pico Kit (5067-1513). Cell- and EV-RNAs were also analysed with DNF-472 HS RNA (15 nt) Kit (Agilent Technologies, Santa Clara, CA), according to the manufacturer. Briefly, 2 μl of RNA samples concentrated within a range of 50-5000 pg/μl and RNA Ladder were added to Diluent Marker, denatured at 70°C for 2 min and loaded. Results were analysed with Agilent ProSize data analysis software, that allows the analysis of RNA size, concentration and quality. Through a Peak Analysis it was possible to access the concentration of each peak recognized by the software. Half a nanogram of extracted RNA from cells and EVs was used as input for complementary DNA (cDNA) synthesis. cDNA was produced using TaqManTM Advanced miRNA cDNA Synthesis Kit (Applied BiosystemsTM, A28007) following manufacturers' instructions and used for droplet digital polymerase chain reaction (PCR) experiments.

[3] = biological target: T1, hnRNPA2B1-RNA 114 probe interaction (Homo sapiens, UniProt P22626); experiment: AlphaScreen with RNA 114 probe and compounds; format: binding; details: 250 nM of compounds, 14 nM RNA 114 probe
T1 construct: purified a human full-length, GST-tagged protein expressed in Escherichia coli cells; made in house; host or cells: E. coli BL21 (DE3)
T1 sequence (P22626 whole entry): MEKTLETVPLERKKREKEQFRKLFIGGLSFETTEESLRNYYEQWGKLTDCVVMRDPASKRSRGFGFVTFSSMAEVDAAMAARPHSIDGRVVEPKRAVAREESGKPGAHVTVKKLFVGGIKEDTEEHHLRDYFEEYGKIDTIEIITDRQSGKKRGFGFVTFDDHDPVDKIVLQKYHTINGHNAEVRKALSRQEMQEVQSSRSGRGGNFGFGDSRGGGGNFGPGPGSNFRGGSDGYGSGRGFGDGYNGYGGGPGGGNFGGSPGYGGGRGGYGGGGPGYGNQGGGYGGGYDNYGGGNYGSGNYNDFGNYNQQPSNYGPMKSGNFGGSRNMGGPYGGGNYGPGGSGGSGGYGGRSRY
Method: The assays were performed in OptiPlate-384-well plates (PerkinElmer, 6007299) in 20 μl final volume. The ligands were diluted in AlphaBuffer [25 mM HEPES, pH 7.4, 100 mM NaCl, 0.01% bovine serum albumin (BSA)] and tested using AlphaScreen GST Detection Kit (PerkinElmer, 6760603C). For the assay optimization, different concentrations of the RNA probes (0–100 nM) were incubated with different concentrations of GST-hnRNPA2B1 (0–60 nM) in the presence of streptavidin Donor beads and anti-GST-Acceptor beads (PerkinElmer) (20 μg/ml final concentration). For the reactions, 4 μl of the RNA probes were first added to the plate, then 16 μl of a mix containing all the other components was added, and the plate was incubated at room temperature for 1 h in the dark.

[4] = test system: HEK293T cells; experiment: Cell viability dose response, HEK293T; format: cell-based, human; details: 24 hr
Method: (§1) Supplementary Figure S6. Cell viability upon treatment with Hematein. Cells were exposed to increasing concentrations of Hematein or DMSO (control vehicle) for 24 hr under standard growth conditions. […] In both cases a range of drug tolerance was observed before the drop of viability over 10 µM. The graph indicates mean and SD of two independent experiments.

[5] = test system: NSC34 cells; experiment: Cell viability dose response, NSC34; format: cell-based, mouse; details: NSC34, 24 hr
Method: as §1

O=C1C=C2CC3(O)COc4c(ccc(O)c4O)C3=C2C=C1O (stereo not shown) [H, hematein]
vesicular miR-221, copy number normalized on Y3 RNA and DMSO [1]: vesicular depletion
accumulation of intracellular RNAs [2]: significantly higher
interference with RNA 114 probe interaction [3]: most effective inhibitors
concentration of drop of viability [4]: over 10 µM
pIC50 ([4]; Homo sapiens, HEK-293T): ~4.39
pIC50 ([5]; Mus musculus, NSC-34): ~4.11
concentration of drop of viability [5]: over 10 µM

Reference: PMC11915509, “Small molecule inhibitors of hnRNPA2B1–RNA interactions reveal a predictable sorting of RNA subsets into extracellular vesicles” (Nucleic Acids Research, 2025)
